Drawing on patent US8841312B2, “Fused pyridine, pyrimidine and triazine compounds as cell cycle inhibitors” (Amgen Inc., priority 2007, dated 2014), this text covers IC50 for 21 molecules.

Broadly, the pIC50 is the negative decadic logarithm of the IC50, by convention in mol/L.

Each structure is given as a SMILES string. pIC50: −log10 of the molar value.

In this assay the target is Cdk4/CyclinD1 (Homo sapiens (Human), UniProt P11802). Nature of the assay: Cdk4 kinase inhibition assay with recombinant Cdk4/CyclinD1, Rb substrate, [33P]-ATP filter plate. Type of assay: biochemical. To be noted: 25 μM ATP, read-out: Cdk 4 IC50. As to the method: The Cdk4 and Cdk6 inhibitory activity of the compounds is measured with a kinase inhibition assay using recombinant Cdk4/CyclinD1 or Cdk6/CyclinD3 protein complexes. The protein substrate used in the assay is the retinoblastoma protein (Rb). The kinase reactions are carried out in a 96-well filter plate (MSDV N6B50, Millipore). […] The mixture is incubated at room temperature for 1 hour and the proteins precipitated with an equal volume of 20% TCA. The plates are washed with 10% TCA according to the manufacturer's instruction and dried at room temperature. The amount of the phosphorylated Rb is determined with a TopCount (PerkinElmer). The IC50 of a compound is determined by nonlinear regression curve fitting using software program Prism 5 (GraphPad Software).
Cdk4/CyclinD1, sequence (P11802 whole entry): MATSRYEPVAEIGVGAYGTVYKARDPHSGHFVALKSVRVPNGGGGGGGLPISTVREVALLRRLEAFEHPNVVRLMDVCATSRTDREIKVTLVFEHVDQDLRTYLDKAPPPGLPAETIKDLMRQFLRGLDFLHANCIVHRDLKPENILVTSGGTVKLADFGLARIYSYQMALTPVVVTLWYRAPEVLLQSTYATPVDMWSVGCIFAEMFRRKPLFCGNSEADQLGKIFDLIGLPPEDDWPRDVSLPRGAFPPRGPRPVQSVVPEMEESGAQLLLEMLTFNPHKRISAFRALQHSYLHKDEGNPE
Cdk4/CyclinD1, sequence (P24385 whole entry partner): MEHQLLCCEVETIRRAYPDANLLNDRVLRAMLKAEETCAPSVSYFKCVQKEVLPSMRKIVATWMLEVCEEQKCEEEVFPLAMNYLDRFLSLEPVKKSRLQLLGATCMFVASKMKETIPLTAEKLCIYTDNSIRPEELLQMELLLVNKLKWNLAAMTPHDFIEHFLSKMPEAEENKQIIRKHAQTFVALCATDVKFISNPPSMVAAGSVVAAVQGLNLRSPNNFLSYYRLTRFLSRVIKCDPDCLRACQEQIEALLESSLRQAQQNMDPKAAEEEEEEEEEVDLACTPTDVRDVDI
On to `CC1(C)CN(c2ccc(Nc3ncc4c5ccncc5n([C@H]5CCC[C@H]5O)c4n3)nn2)CCN1` [Example 365], for which the pIC50 is 6.80.
Next, `C[C@H]1CN(c2ccc(Nc3ncc4c5ccncc5n([C@H]5CCC[C@@H]5O)c4n3)nc2)CCN1` [Example 401]: 6.77; `CN(C)C1CCN(c2ccc(Nc3ncc4c5ccncc5n(C5CCSCC5)c4n3)nn2)CC1` [Example 275, N-(6-(4-(dimethylamino)-1-piperidinyl)-3-pyridazinyl)-9-(tetrahydro-2H-thiopyran-4-yl)-9H-pyrido[4′,3′:4,5]pyrrolo[2,3-d]pyrimidin-2-amine]: 7.77.
Under `C[C@H]1CN(c2ccc(Nc3ncc4c5ccncc5n(C5CCCC5)c4n3)nc2)CCN1` [Example 62] stands 8.70; under `c1cc2c3cnc(Nc4nsc(N5CCNCC5)n4)nc3n(C3CCCC3)c2cn1` [Example 132], 6.52; under `c1cc2c3cnc(Nc4nsc(NC5CCNC5)n4)nc3n(C3CCCC3)c2cn1` (stereo not drawn) [Example 135], 5.00.
Under `C[C@H](O)Cn1c2cnccc2c2cnc(Nc3ccc(N4CCNCC4)cn3)nc21` [Example 421] stands 7.11.
Take `C[C@@H](CO)n1c2cnccc2c2cnc(Nc3ccc(N4CCNC(C)(C)C4)cn3)nc21` [Example 378]: the pIC50 was 7.07.
Under `CC[C@H](C)n1c2cnccc2c2cnc(Nc3ccc(N4CC[C@@H](O)C4)cn3)nc21` [Example 336] stands 8.70; under `C[C@@H](CO)n1c2cnccc2c2cnc(Nc3ccc(N4CCNC(C)(C)C4)nn3)nc21` [Example 379], 7.96; under `CC1(C)CN(c2ccc(Nc3ncc4c5ccncc5n(C5CCCC5)c4n3)nn2)CCN1` [Example 10], 8.66.
Under `COC1CCN(c2cnc(Nc3ncc4c5ccncc5n(C5CCCC5)c4n3)cn2)C1` (stereo not drawn) [Example 87] stands 7.37.
With `c1cc2c3cnc(Nc4ccc(NCC5CCCCN5)nn4)nc3n(C3CCCC3)c2cn1` (stereo not drawn) [Example 99], the pIC50 is 8.31.
Under `CN1CCN(c2nc(Nc3ncc4c5ccncc5n(C5CCCC5)c4n3)ns2)CC1` [Example 133] stands 7.00; under `C[C@@H](CO)n1c2cnccc2c2cnc(Nc3ccc(N4CCC(N(C)C)CC4)nn3)nc21` [Example 372], 6.89; under `O=C(c1ccc(Nc2ncc3c4ccnc(O)c4n(C4CCCC4)c3n2)nc1)N1CCNCC1` [Example 223, 9-cyclopentyl-2-((5-(1-piperazinylcarbonyl)-2-pyridinyl)amino)-9H-pyrido[4′,3′:4,5]pyrrolo[2,3-d]pyrimidin-8-ol], 7.89.
Regarding `Cc1nc(Nc2ncc3c4ccnc(Cl)c4n(C4CCCC4)c3n2)ccc1N1CCNCC1` [Example 155, 8-Chloro-9-cyclopentyl-N-(6-methyl-5-(1-piperazinyl)-2-pyridinyl)-9H-pyrido[4′,3′:4,5]pyrrolo[2,3-d]pyrimidin-2-amine], the pIC50 is 8.39.
For the molecule `C[C@@H](CO)n1c2cnccc2c2cnc(Nc3ccc(N4CC[C@@H](O)C4)nn3)nc21` [Example 374], the pIC50 was 7.07.
`CCN(CC)C1CCN(c2ccc(Nc3ncc4c5ccnc(O)c5n(C5CCCC5)c4n3)nc2)CC1` [Example 284, 9-Cyclopentyl-2-((5-(4-(diethylamino)-1-piperidinyl)-2-pyridinyl)amino)-9H-pyrido[4′,3′:4,5]pyrrolo[2,3-d]pyrimidin-8-ol]: the pIC50 is 8.30.
Under `c1cc2c3cnc(Nc4ccc(N5CCC6(CCCN6)CC5)nn4)nc3n(C3CCCC3)c2cn1` [Example 232, 9-cyclopentyl-N-(6-(1,8-diazaspiro[45]dec-8-yl)-3-pyridazinyl)-9H-pyrido[4′,3′:4,5]pyrrolo[2,3-d]pyrimidin-2-amine] stands 8.14; under `O=C1CN(c2ccc(Nc3ncc4c5ccncc5n(C5CCCC5)c4n3)nn2)CCN1` [Example 115], 8.64.
